Assay results from US10208047B2, “Tertiary alcohol imidazopyrazine BTK inhibitors” (Merck Sharp & Dohme Corp., priority 2014, dated 2019).

biological target: BTK enzyme (recombinant full-length BTK, hBTK) (Homo sapiens (Human), UniProt Q06187); assay: Btk enzyme activity assay, LANCE TR-FRET; assay type: biochemical; conditions: 50 pM hBTK, 2 μM biotin-A5-peptide, 25 μM ATP, 60 minute compound & enzyme incubation, compound range 1 μM to 0.017 nM, read-out: BTK binding IC50
Procedure: Btk Enzyme Activity Assay Methods
BTK enzymatic activity was determined with the LANCE (Lanthanide Chelate Excite) TR-FRET (Time-resolved fluorescence resonance energy transfer) assay. In this assay, the potency (IC50) of each compound was determined from an eleven point (1:3 serial dilution; final compound concentration range in assay from 1 μM to 0.017 nM) titration curve using the following outlined procedure. To each well of a black non-binding surface Corning 384-well microplate (Corning Catalog #3820), 5 nL of compound (2000 fold dilution in final assay volume of 10 μL) was dispensed, followed by the addition of 7.5 μL of 1× kinase buffer (50 mM Hepes 7.5, 10 mM MgCl2, 0.01% Brij-35, 1 mM EGTA, 0.05% BSA & 1 mM DTT) containing 5.09 pg/μL (66.67 pM) of BTK enzyme (recombinant protein from baculovirus-transfected Sf9 cells: full-length BTK, 6HIS-tag cleaved). Following a 60 minute compound & enzyme incubation, each reaction was initiated by the addition of 2.5 μL 1× kinase buffer containing 8 μM biotinylated “A5” peptide (Biotin-EQEDEPEGDYFEWLE-NH2) (SEQ.ID.NO.: 1), and 100 μM ATP. The final reaction in each well of 10 μL consists of 50 pM hBTK, 2 μM biotin-A5-peptide, and 25 μM ATP. Phosphorylation reactions were allowed to proceed for 120 minutes. Reactions were immediately quenched by the addition of 20 uL of 1× quench buffer (15 mM EDTA, 25 mM Hepes 7.3, and 0.1% Triton X-100) containing detection reagents (0.626 nM of LANCE-Eu-W1024-anti-phosphoTyrosine antibody, PerkinElmer and 86.8 nM of Streptavidin-conjugated Dylight 650, Dyomics/ThermoFisher Scientific). After 60 minutes incubation with detection reagents, reaction plates were read on a PerkinElmer EnVision plate reader using standard TR-FRET protocol. Briefly, excitation of donor molecules (Eu-chelate:anti-phospho-antibody) with a laser light source at 337 nm produces energy that can be transferred to Dylight-650 acceptor molecules if this donor:acceptor pair is within close proximity. Fluorescence intensity at both 665 nm (acceptor) and 615 nm (donor) are measured and a TR-FRET ratio calculated for each well (acceptor intensity/donor intensity). IC50 values were determined by 4 parameter robust fit of TR-FRET ratio values vs. (Log10) compound concentrations.

Chain of BTK enzyme (recombinant full-length BTK, hBTK) (Q06187 whole entry): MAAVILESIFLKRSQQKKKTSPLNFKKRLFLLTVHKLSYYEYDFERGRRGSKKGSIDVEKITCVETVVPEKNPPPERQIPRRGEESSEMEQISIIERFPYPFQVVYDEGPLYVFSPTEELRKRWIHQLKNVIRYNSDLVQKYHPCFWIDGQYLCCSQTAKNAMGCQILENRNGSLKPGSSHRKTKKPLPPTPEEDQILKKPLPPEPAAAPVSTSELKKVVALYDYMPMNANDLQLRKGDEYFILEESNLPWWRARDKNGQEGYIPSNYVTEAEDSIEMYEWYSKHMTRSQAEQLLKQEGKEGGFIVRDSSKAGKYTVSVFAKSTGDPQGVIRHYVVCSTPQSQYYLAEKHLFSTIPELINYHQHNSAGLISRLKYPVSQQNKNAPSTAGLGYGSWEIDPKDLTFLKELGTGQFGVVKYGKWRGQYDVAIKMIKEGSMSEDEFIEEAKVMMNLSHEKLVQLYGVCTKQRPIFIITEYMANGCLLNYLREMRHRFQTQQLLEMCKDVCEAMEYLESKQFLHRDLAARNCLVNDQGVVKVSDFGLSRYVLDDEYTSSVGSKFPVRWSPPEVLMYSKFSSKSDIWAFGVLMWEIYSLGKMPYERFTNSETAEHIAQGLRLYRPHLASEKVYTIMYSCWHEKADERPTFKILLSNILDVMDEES

SMILES | IC50 [nM]
CC(C)[C@@]1(C(=O)O)CC[C@H](c2nc(-c3ccc([C@@](C)(O)c4cccc(C(F)F)c4)cc3)c3c(N)ncc(Cl)n23)C1 [Example 30, (1R,3S)-3-[8-amino-5-chloro-1-(4-{(1R)-1-[3-(difluoromethyl)phenyl]-1-hydroxyethyl}phenyl)imidazo[1,5-a]pyrazin-3-yl]-1-(1-methylethyl)cyclopentanecarboxylic acid] | 32.3
CC1(C)[C@H](c2nc(-c3ccc([C@@](C)(O)c4cccc(C(F)(F)F)c4)cc3)c3c(N)ncc(F)n23)CC[C@]1(C)C(=O)O [Example 24, (1S,3R)-3-[8-amino-5-fluoro-1-(4-{(1R)-1-hydroxy-1-[3-(trifluoromethyl)phenyl]ethyl}phenyl)imidazo[1,5-a]pyrazin-3-yl]-1,2,2-trimethylcyclopentanecarboxylic acid] | 6.3
CC(C)[C@@]1(C(=O)O)CC[C@@H](c2nc(-c3ccc([C@@](C)(O)c4cccc(C(F)F)c4)cc3)c3c(N)ncc(Cl)n23)C1 [Example 32, (1R,3R)-3-[8-amino-5-chloro-1-(4-{(1R)-1-[3-(difluoromethyl)phenyl]-1-hydroxyethyl}phenyl)imidazo[1,5-a]pyrazin-3-yl]-1-(1-methylethyl)cyclopentanecarboxylic acid] | 41.8
CC(C)[C@]1(C(=O)O)CC[C@H](c2nc(-c3ccc([C@](C)(O)c4cccc(C(F)(F)F)c4)cc3)c3c(N)nccn23)C1 [Example 4, (1S,3S)-3-[8-amino-1-(4-{(1S)-1-hydroxy-1-[3-(trifluoromethyl)phenyl]ethyl}phenyl)imidazo[1,5-a]pyrazin-3-yl]-1-(1-methylethyl)cyclopentanecarboxylic acid] | 1000
C[C@]1(C(=O)O)CC[C@](C)(c2nc(-c3ccc([C@@](C)(O)c4cccc(C(F)(F)F)c4)cc3)c3c(N)nccn23)C1 [Example 16, (1S,3S)-3-[8-amino-1-(4-{(1R)-1-hydroxy-1-[3-(trifluoromethyl)phenyl]ethyl}phenyl)imidazo[1,5-a]pyrazin-3-yl]-1,3-dimethylcyclopentanecarboxylic acid] | 7.6
C[C@@](O)(c1ccc(-c2nc(C34CCC(C(=O)O)(CC3)CC4)n3ccnc(N)c23)cc1)c1cccc(C(F)(F)F)c1 [Example 3, 4-[8-amino-1-(4-{(1R)-1-hydroxy-1-[3-(trifluoromethyl)phenyl]ethyl}phenyl)imidazo[1,5-a]pyrazin-3-yl]bicyclo[2.2.2]octane-1-carboxylic acid] | 775
CC1(C(=O)O)CCC(C)(c2nc(-c3ccc([C@@](C)(O)c4cccc(C(F)(F)F)c4)cc3)c3c(N)nccn23)CC1 (stereo partly drawn) [Example 1, (R)-4-(8-amino-1-(4-(1-hydroxy-1-(3-(trifluoromethyl)phenyl)ethyl)phenyl)imidazo[1,5-a]pyrazin-3-yl)-1,4-dimethylcyclohexanecarboxylic acid] | 39.4
C[C@@](O)(c1ccc(-c2nc([C@@H]3C[C@H]4CC[C@@H](C3)[C@H]4C(=O)O)n3ccnc(N)c23)cc1)c1cccc(C(F)(F)F)c1 [Example 26, (3-exo,8-syn)-3-[8-amino-1-(4-{(1R)-1-hydroxy-1-[3-(trifluoromethyl)phenyl]ethyl}phenyl)imidazo[1,5-a]pyrazin-3-yl]bicyclo[3.2.1]octane-8-carboxylic acid] | 33.5
C[C@](O)(c1ccc(-c2nc(C34CCC(C(=O)O)(CC3)CC4)n3ccnc(N)c23)cc1)c1cccc(C(F)(F)F)c1 [Example 2, 4-[8-amino-1-(4-{(1S)-1-hydroxy-1-[3-(trifluoromethyl)phenyl]ethyl}phenyl)imidazo[1,5-a]pyrazin-3-yl]bicyclo[2.2.2]octane-1-carboxylic acid] | 5.8
CC(C)[C@]1(C(=O)O)CC[C@@H](c2nc(-c3ccc([C@@](C)(O)c4cccc(C(F)F)c4)cc3)c3c(N)ncc(Cl)n23)C1 [Example 29, (1S,3R)-3-[8-amino-5-chloro-1-(4-{(1R)-1-[3-(difluoromethyl)phenyl]-1-hydroxyethyl}phenyl)imidazo[1,5-a]pyrazin-3-yl]-1-(1-methylethyl)cyclopentanecarboxylic acid] | 2.8
CC(C)[C@@]1(C(=O)O)CCC[C@H](c2nc(-c3ccc([C@](C)(O)c4cccc(C(F)(F)F)c4)cc3)c3c(N)nccn23)C1 [Example 15, (1R,3S)-3-[8-amino-1-(4-{(1S)-1-hydroxy-1-[3-(trifluoromethyl)phenyl]ethyl}phenyl)imidazo[1,5-a]pyrazin-3-yl]-1-(1-methylethyl)cyclohexanecarboxylic acid] | 104
C[C@@](O)(c1ccc(-c2nc(C34CCC(C(=O)O)(CC3(F)F)C(F)(F)C4)n3ccnc(N)c23)cc1)c1cccc(C(F)(F)F)c1 (stereo partly drawn) [Example 12, 4-[8-amino-1-(4-{(1R)-1-hydroxy-1-[3-(trifluoromethyl)phenyl]ethyl}phenyl)imidazo[1,5-a]pyrazin-3-yl]-2,2,5,5-tetrafluorobicyclo[2.2.2]octane-1-carboxylic acid] | 17.3
CC(C)[C@]1(C(=O)O)CC[C@H](c2nc(-c3ccc([C@@](C)(O)c4cccc(C(F)F)c4)cc3)c3c(N)ncc(Cl)n23)C1 [Example 31, (1S,3S)-3-[8-amino-5-chloro-1-(4-{(1R)-1-[3-(difluoromethyl)phenyl]-1-hydroxyethyl}phenyl)imidazo[1,5-a]pyrazin-3-yl]-1-(1-methylethyl)cyclopentanecarboxylic acid] | 133
CC1(C)[C@H](c2nc(-c3ccc([C@@](C)(O)c4cccc(C(F)F)c4)cc3)c3c(N)nccn23)CC[C@]1(C)C(=O)O [Example 27, (1S,3R)-3-[8-amino-1-(4-{(1R)-1-[3-(difluoromethyl)phenyl]-1-hydroxyethyl}phenyl)imidazo[1,5-a]pyrazin-3-yl]-1,2,2-trimethylcyclopentanecarboxylic acid] | 0.78
CC(C)[C@]1(C(=O)O)CCC[C@@H](c2nc(-c3ccc([C@](C)(O)c4cccc(C(F)(F)F)c4)cc3)c3c(N)nccn23)C1 [Example 14, (1S,3R)-3-[8-amino-1-(4-{(1S)-1-hydroxy-1-[3-(trifluoromethyl)phenyl]ethyl}phenyl)imidazo[1,5-a]pyrazin-3-yl]-1-(1-methylethyl)cyclohexanecarboxylic acid] | 1000
